In experiment [1] the test system is NCI-H292 cells. As to the kind of experiment: Immunoassay of MUC5AC protein in NCI-H292 cells (Example 2). It is filed as cell-based, human. Conditions: for MUC5AC protein synthesis induced by the supernatant of activated neutrophils: BIBX1522 10 μg/ml, AG1478 10 μM, AG1295 100 μM, A1 100 μM, 30 min pretreatment, antibodies preincubated with supernatant; for MUC5AC synthesis by supernatant of activated neutrophils, cigarette smoke and H2O2 / MUC5AC protein synthesis by TGFα: DMSO 1%, SOD 300 U/ml; for MUC5AC synthesis by supernatant of activated neutrophils, cigarette smoke and H2O2: DMTU 50 mM. The procedure:
Cell Culture. NCI-H292 cells, a human pulmonary mucoepidermoid carcinoma cell line, were grown in RPMI 1640 medium containing 10% fetal bovine serum, penicillin (100 U/ml), streptomycin (100 μg/ml) and Hepes (25 mM) at 37° C. in a humidified 5% CO2, water-jacketed incubator. Either 6-well culture plates or 8-chamber slides were used to culture the cells. […] The cells were then washed and incubated with fresh medium alone. Experiments were terminated at preselected times (for mRNA, 6 h and 12 h; for protein, 24 h). As controls, cells were incubated with medium alone for same time periods. […] In inhibition studies with blocking antibodies to EGF-R ligands, the supernatants were pretreated with anti-TGFα antibody (Calbiochem) or anti-EGF antibody for 30 min and then added to NCI-H292 cells. The role of oxygen free radicals was examined using scavengers of oxygen free radical DMSO (1%, Sigma), 1,3-dimethyl-2-thiourea (DMTU, 50 mM, Sigma), or superoxide dismutase (SOD, 300 U/ml, Sigma).
Preparation of Cigarette Smoke Solution. Research cigarettes (code2R1, produced for the University of Kentucky Tobacco and Health Research Foundation) were used in the study. Cigarette smoke solution was prepared as previously described (Dusser et al. (1989) J. Clin. Invest. 84:900-906). In brief, cigarette smoke was withdrawn into a polypropylene syringe (35 ml) at a rate of one puff/min (10 times) and bubbled slowly into 20 ml of RPM11640 containing 50 mM Hepes buffer. The smoke solution was then titrated to pH 7,4 and used immediately after preparation.
Immunoassay of MUC5AC Protein. MUC5AC protein was measured as described above. In brief, cell lysates were prepared with PBS at multiple dilutions, and 50 μl of each sample was incubated with bicarbonate-carbonate buffer (50 μl) at 40° C. in a 96-well plate (Maxisorp Nunc, Fisher Scientific, Santa Clara, Calif.), until dry. Plates were washed three times with PBS and blocked with 2% BSA (fraction V, Sigma) for 1 h at room temperature. Plates were again washed three times with PBS and then incubated with 50 μl of mouse monoclonal MUC5AC antibody (1:100) that was diluted with PBS containing 0.05% Tween 20. After 1 h, the wells were washed three times with PBS, and 100 μl horseradish peroxidase-goat anti-mouse IgG conjugate (1:10,000, Sigma) was dispensed into each well. After 1 h, plates were washed three times with PBS. Color reaction was developed with TMB peroxidase solution (Kirkegaard & Perry Laboratories, Gaithersburg, Md.) and stopped with 2N H2SO4. Absorbance was read at 450 nm.

Experiment [2] concerns NCI-H292 cells. As to the kind of experiment: MUC5AC mRNA and protein in NCI-H292 cells incubated with cigarette smoke solution (Example 7). In kind it is cell-based, human. Conditions: BIBX1522 10 μg/ml, AG1478 10 μM; for MUC5AC protein synthesis induced by cigarette smoke solution: AG1295 100 μM, A1 100 μM, DMSO 1%, SOD 300 U/ml. The method, then: NCI-H292 cells, a human pulmonary mucoepidermoid carcinoma cell line, were grown in RPMI 1640 medium containing 10% fetal bovine serum, penicillin (100 U/ml), streptomycin (100 μg/ml) and Hepes (25 mM) at 37° C. in a humidified 5% CO2 water-jacketed incubator. Either 6-well culture plates or 8-chamber slides were used to culture the cells. When confluent, cells were incubated for 1 hour with cigarette smoke solution. The cells were then washed and incubated with fresh medium alone. Experiments were terminated at preselected times (for mRNA, 6 hours and 12 hours; for protein, 24 hours). As controls, cells were incubated with medium alone for same time periods. […] The effects of a selective inhibitor of platelet-derived growth factor receptor tyrosine kinase (tyrphostin AG1295, 100 μM, Calbiochem), and a negative control for tyrphostins (tyrphostin A1, 100 μM, Calbiochem) were also examined. The role of reactive oxygen species was examined using a scavenger of oxygen free radicals DMSO (1%, Sigma), or superoxide dismutase (SOD, 300 U/ml, Sigma).
In situ hybridization was performed using a human EGFR probe, which contains a 350-bp cDNA fragment of the human EGFR gene (pTRI-EGFR-human probe template, Ambion, Austin, Tex.) and a human MUC5AC probe, which contains a 298-bp cDNA fragment of the human MUC5AC gene, The 350-bp cDNA human EGFR was subcloned into pBluescript II SK-vector at Kpn I and EcoR I sites. This pBluescript was used to generate human EGFR antisense and sense probes. Hybridization was performed as described previously. Lou et al. (1998) Am. J. Respir. Crit. Care Med. 157:1927-1934. In brief, the cells grown on the 8-chamber slides were fixed in 4% paraformaldehyde, rehydrated in 0.5×SSC, and then acetylated in triethanolamine and acetic anhydride. Hybridization was carried out with 2500-4000 cpm/μl of antisense or sense probe in 50% deionized formamide, 0.3 M NaCl, 20 mM Tris, 5 mM EDTA, 1× Denhardt's solution, 20 mM dithiothreitol, 10% dextran sulfate, 0.5 mg/ml yeast tRNA, and 0.5 mg/ml sonicated salmon sperm DNA at 58° overnight. Posthybridization treatment consisted of washes with 2×SSC, 1 mM EDTA, 10 mM β-mercaptoethanol at room temperature, incubation with RNase solution (20 μg/ml) for 30 min at room temperature, and further washes in 0.1×SSC, 1 mM EDTA, 10 mM β-mercaptoethanol at 55° C. for 2 hours and then in 0.5×SSC at room temperature for 20 minutes. Specimens were dehydrated, air-dried, and covered with Kodak NBT nuclear track emulsion (Eastman Kodak, Rochester, N.Y.) for autoradiography. After exposure for 7 to 21 days at 4° C., the slides were developed, fixed, and counterstained with hematoxylin.
MUC5AC protein was measured as described previously. Takeyama et al. (1999) Proc. Natl. Acad. Sci. USA 96:3081-3086. In brief, cell lysates were prepared with PBS at multiple dilutions, and 50 μl of each sample was incubated with bicarbonate-carbonate buffer (50 μl) at 40° C. in a 96-well plate (Maxisorp Nunc, Fisher Scientific, Santa Clara, Calif.), until dry. Plates were washed three times with PBS and blocked with 2% bovine serum albumin, fraction V (Sigma) for 1 hour at room temperature. Plates were again washed three times with PBS and then incubated with 50 μl of MUC5AC mAb (1:1 00) that was diluted with PBS containing 0.05% Tween 20. After 1 hour, the wells were washed three times with PBS, and 100 μl horseradish peroxidase-goat anti-mouse IgG conjugate (1:10,000) was dispensed into each well. After 1 hour, plates were washed three times with PBS. Color reaction was developed with 3,3′,5,5′-tetramethylbenzidine (TMB) peroxidase solution (Kirkegaard & Perry Laboratories, Gaithersburg, Md.) and stopped with 2N H2S04. Absorbance was read at 450 nm.

Experiment [3] addresses EGFR (Homo sapiens, UniProt P00533). As to the kind of experiment: Immunoprecipitation of EGF-R and immunoblotting for tyrosine phosphorylation in NCI-H292 cells. It is filed as cell-based. Also on record: These cells express EGF-R constitutively; endogenous in cells; host or cells: NCI-H292 (human pulmonary mucoepidermoid carcinoma). The procedure:
Immunoprecipitation for EGF-R Protein and Immunoblotting for Tyrosine Phosphorylation. Cells were serum-starved for 24 h and then stimulated with TGFα, H2O2, or the supernatant of activated neutrophils for 15 min. After stimulation, cells were lysed and incubated for 30 min in an orbital shaker at 4° C. To remove insoluble material, cell lysates were centrifuged at 14,000 rpm for 5 min at 4° C. Aliquots of supernatants containing equal amounts of protein were immunoprecipitated with anti-EGF receptor antibody (polyclonal, Ab4, Calbiochem) and 20 μl of protein A-agarose (Santa Cruz) for 2 h at 4° C. Precipitates were washed three times with 0.5 ml of lysis buffer, suspended in SDS sample buffer, and boiled for 5 min. Proteins were separated by SDS-PAGE in 8.0% acrylamide gel. The resulting gel was equilibrated in the transfer buffer: 25 mM Tris-HCl, 192 mM glycine, 20% (vol/vol) methanol, pH 8.3. The proteins were then transferred electrophoretically to nitrocellulose membranes (0.22 μm), blocked with 5% fat-free skimmed milk in PBS containing 0.05% Tween 20 overnight and then incubated with monoclonal anti-phosphotyrosine antibody (1:100,Santa Cruz) for 1 h. Bound antibody was visualized according to a standard protocol for the avidin-biotin-alkaline phosphatase complex method (ABC kit, Vector Laboratories).

We go through four molecules from patent US7531500B2, “Preventing airway mucus production by administration of EGF-R antagonists” (The Regents of the University of California, priority 1998, dated 2009).

EGFR, sequence (P00533 25-1210): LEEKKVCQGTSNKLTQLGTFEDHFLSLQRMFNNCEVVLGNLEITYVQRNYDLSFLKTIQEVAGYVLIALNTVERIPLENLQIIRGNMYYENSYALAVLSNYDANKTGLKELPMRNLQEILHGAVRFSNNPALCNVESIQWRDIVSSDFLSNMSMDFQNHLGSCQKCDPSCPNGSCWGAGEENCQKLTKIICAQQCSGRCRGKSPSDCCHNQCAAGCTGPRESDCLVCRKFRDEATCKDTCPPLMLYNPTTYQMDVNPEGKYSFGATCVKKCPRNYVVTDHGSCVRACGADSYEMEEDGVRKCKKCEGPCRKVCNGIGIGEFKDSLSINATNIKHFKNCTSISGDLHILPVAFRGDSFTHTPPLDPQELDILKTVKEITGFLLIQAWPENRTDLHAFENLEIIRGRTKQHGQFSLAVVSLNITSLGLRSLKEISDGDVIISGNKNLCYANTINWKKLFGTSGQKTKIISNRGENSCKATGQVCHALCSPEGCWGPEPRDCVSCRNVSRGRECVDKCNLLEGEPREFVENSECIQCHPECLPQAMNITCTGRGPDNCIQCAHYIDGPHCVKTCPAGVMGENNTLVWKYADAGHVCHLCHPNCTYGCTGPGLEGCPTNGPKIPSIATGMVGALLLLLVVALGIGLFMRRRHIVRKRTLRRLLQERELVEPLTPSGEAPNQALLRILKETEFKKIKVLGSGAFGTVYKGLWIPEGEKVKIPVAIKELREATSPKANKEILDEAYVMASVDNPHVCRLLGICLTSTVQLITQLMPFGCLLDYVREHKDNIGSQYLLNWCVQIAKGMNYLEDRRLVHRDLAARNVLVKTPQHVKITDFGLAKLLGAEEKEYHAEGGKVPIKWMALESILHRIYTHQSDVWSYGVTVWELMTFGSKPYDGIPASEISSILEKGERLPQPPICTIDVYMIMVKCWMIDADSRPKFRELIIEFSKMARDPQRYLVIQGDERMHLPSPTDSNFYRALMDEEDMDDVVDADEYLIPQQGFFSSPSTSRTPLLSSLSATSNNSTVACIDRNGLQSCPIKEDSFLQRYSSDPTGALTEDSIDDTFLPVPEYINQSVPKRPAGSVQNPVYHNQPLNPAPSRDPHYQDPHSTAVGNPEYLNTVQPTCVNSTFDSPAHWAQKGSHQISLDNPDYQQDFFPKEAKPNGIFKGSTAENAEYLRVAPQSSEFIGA

Turning to `Cc1cc2ncc(-c3ccccc3)nc2cc1C` [AG1295], in experiment [1], the “MUC5AC protein synthesis induced by the supernatant of activated neutrophils” value was “without effect”. The “MUC5AC protein synthesis induced by cigarette smoke solution” value in experiment [2] is given as “without effect”.

Regarding `COc1cc2ncnc(Nc3cccc(Cl)c3)c2cc1OC` [AG1478], in experiment [1], the “MUC5AC protein synthesis induced by the supernatant of activated neutrophils” value is on record as “prevented”. In addition, the “increase in MUC5AC protein synthesis induced by all stimuli (cigarette smoke, H2O2, TGFα)” value in experiment [1] (pretreatment 10 μM) is listed as “prevented”. In experiment [2], the “MUC5AC mRNA expression induced by cigarette smoke solution” value was “prevented” and the “MUC5AC protein synthesis induced by cigarette smoke solution” value is “prevented”.

For the molecule `C[S+](C)[O-]` [DMSO], in experiment [1], the “MUC5AC synthesis induced by cigarette smoke” value is given as “partially inhibited”; the “MUC5AC synthesis by supernatant of activated neutrophils, cigarette smoke and H2O2” value is given as “significantly inhibited”; the “MUC5AC protein synthesis by TGFα” value is reported as “unaffected”. Further, in experiment [2], the “MUC5AC protein synthesis induced by cigarette smoke solution” value was “inhibited significantly”. In addition, in experiment [3], the “TGFα-induced EGF-R tyrosine phosphorylation” value was “had no effect”; the “supernatant-, cigarette smoke-, and H2O2-induced EGF-R tyrosine phosphorylation” value is reported as “inhibited”.

For the molecule superoxide dismutase [SOD], in experiment [1], the “MUC5AC synthesis induced by cigarette smoke” value is “partially inhibited”; the “MUC5AC synthesis by supernatant of activated neutrophils, cigarette smoke and H2O2” value is “significantly inhibited”; the “MUC5AC protein synthesis by TGFα” value is reported as “unaffected”. Further, the “MUC5AC protein synthesis induced by cigarette smoke solution” value in experiment [2] is recorded as “inhibited significantly”.
